Results on 12 molecules are retold here after PubChem BioAssay (NCI).

Several values for one entry are separate records, joined by “and”; a condition that tells them apart may be missing. Identical values can stand only once.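 Tested at 5 concentrations; 48 h exposure; 96-well plates; endpoints linearly interpolated, else capped at highest concentration. At the GI50, growth is halved. The concentration for full growth arrest is given as TGI.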

Some test systems named below: 786-0 renal; BT-549 breast; HCC-2998 colon; HCT-116 colon; NCI-H226 lung; OVCAR-8 ovarian; SK-MEL-5 melanoma; SNB-75 CNS; U251 CNS; UACC-257 melanoma.
What all share (experiment): NCI anticancer screen, dose series, 48 h

On to `C[C@@H](N)COc1ccc(-c2cnc3ccc(N[C@H](C)c4cccc(F)c4)nn23)cc1`, for which the GI50 in the assay with 786-0 renal was 1.33 µM; in the assay with BT-549 breast, 1.68 µM; with HCC-2998 colon, 2.01 µM; with HCT-116 colon it was 1.46 µM; in the assay on NCI-H226 lung it was 1.62 µM; with OVCAR-8 ovarian it was 1.84 µM. In addition, the GI50 with SK-MEL-5 melanoma was 1.63 µM; in the assay on SNB-75 CNS it was 5.15 µM; in the assay on U251 CNS, 1.59 µM; in the assay on UACC-257 melanoma, 1.62 µM. Further, the TGI in the assay on 786-0 renal stood at 2.74 µM; with BT-549 breast, 3.33 µM; with HCC-2998 colon it was 4.97 µM; in the assay on HCT-116 colon, 3.07 µM; in the assay on NCI-H226 lung, 7.31 µM; with OVCAR-8 ovarian it was 4.3 µM. Moreover, the TGI came to 3.03 µM in the assay with SK-MEL-5 melanoma, 20.6 µM with SNB-75 CNS, 4.18 µM in the assay on U251 CNS and 3.11 µM in the assay on UACC-257 melanoma.

Turning to `COC(=O)C12CCC(C)(C)CC1C1=CCC3C4(C)CC(O)C(O)C(C)(C(=O)OC)C4CCC3(C)C1(CO)CC2` (stereo not drawn), the TGI was 23.3 µM in the assay with 786-0 renal; 28.8 µM in the assay on BT-549 breast; 27.2 µM in the assay with HCC-2998 colon; 27.4 µM with HCT-116 colon; 38.5 µM in the assay on NCI-H226 lung; 31.5 µM with OVCAR-8 ovarian. For the same molecule, the TGI with SK-MEL-5 melanoma was 41.3 µM; with SNB-75 CNS, 25.3 µM; with U251 CNS, 39.8 µM; in the assay with UACC-257 melanoma, 31.7 µM.

On to `Cc1ccc([P+](Cc2ccccc2)(c2ccccc2)c2ccccc2)cc1`, for which the GI50 is 4.11 µM in the assay on 786-0 renal; 3.31 µM with BT-549 breast; 2.66 µM in the assay on HCC-2998 colon; 1.81 µM with HCT-116 colon; 2.57 µM in the assay on NCI-H226 lung; 1.74 µM in the assay on OVCAR-8 ovarian. Besides, the GI50 was 0.904 µM with SK-MEL-5 melanoma, 2.21 µM with SNB-75 CNS, 2.14 µM in the assay on U251 CNS and 0.98 µM in the assay with UACC-257 melanoma. The TGI with 786-0 renal was above 100 µM; with BT-549 breast it was 14.8 µM; in the assay with HCC-2998 colon, 25.1 µM; in the assay on HCT-116 colon, above 100 µM; in the assay with NCI-H226 lung, above 100 µM; in the assay on OVCAR-8 ovarian, 11.3 µM. Also, the TGI with SK-MEL-5 melanoma came to 2.3 µM; in the assay on SNB-75 CNS, 9.71 µM; with U251 CNS, 24.4 µM; in the assay with UACC-257 melanoma, 4.8 µM.

In the case of `Cc1ccc(-c2nc3nc(-c4ccc(F)cc4)nc(N4CCNCC4)c3o2)cc1`, the GI50 was 1.76 µM in the assay with 786-0 renal; 13.6 µM in the assay with BT-549 breast; 4.11 µM in the assay with HCC-2998 colon; 1.7 µM with HCT-116 colon; 10.6 µM in the assay with NCI-H226 lung; 2.35 µM in the assay with OVCAR-8 ovarian. For the same molecule, the GI50 with SK-MEL-5 melanoma was 15.4 µM; with SNB-75 CNS it was 11.6 µM; in the assay with U251 CNS it was 1.95 µM; in the assay with UACC-257 melanoma, 18.4 µM. Moreover, the TGI in the assay with 786-0 renal turned out to be 3.34 µM; with BT-549 breast it was 30.1 µM; in the assay on HCC-2998 colon, 15.8 µM; in the assay with HCT-116 colon, 3.32 µM; with NCI-H226 lung, 26.7 µM; in the assay on OVCAR-8 ovarian it was 5.82 µM. The TGI was determined as 29 µM in the assay on SK-MEL-5 melanoma, 23.9 µM in the assay on SNB-75 CNS, 4.03 µM in the assay on U251 CNS and 37.6 µM in the assay on UACC-257 melanoma.

In the case of `Oc1c(C(Nc2ccccn2)c2cccc(Oc3ccccc3)c2)ccc2cccnc12` (stereo not drawn), the GI50 was 0.657 µM with 786-0 renal; 0.479 µM with BT-549 breast; 1.84 µM in the assay on HCC-2998 colon; 0.449 µM in the assay with HCT-116 colon; 1.36 µM with NCI-H226 lung; 0.424 µM with OVCAR-8 ovarian. Further, the GI50 in the assay with SK-MEL-5 melanoma was 0.388 µM; with SNB-75 CNS, 0.433 µM; in the assay with U251 CNS it was 0.362 µM; in the assay with UACC-257 melanoma, 1.32 µM. In addition, the TGI came to 11.1 µM in the assay on 786-0 renal; 13 µM in the assay on BT-549 breast; 32.6 µM in the assay on HCC-2998 colon; 16.6 µM in the assay with HCT-116 colon; 9.32 µM in the assay on NCI-H226 lung; 19.7 µM in the assay on OVCAR-8 ovarian. The TGI with SK-MEL-5 melanoma worked out at 2.16 µM; in the assay on SNB-75 CNS, 11.4 µM; with U251 CNS it was 14 µM; with UACC-257 melanoma it was 15 µM.

Turning to `O=Cc1cccc2ccc3ccccc3c12`, the TGI in the assay on 786-0 renal is 53.5 µM; in the assay with BT-549 breast it was 96.9 µM; with HCC-2998 colon, 94 µM; with HCT-116 colon, 39.4 µM; with NCI-H226 lung, 74.8 µM; in the assay with OVCAR-8 ovarian, above 100 µM. Also, the TGI is 39.6 µM in the assay on SK-MEL-5 melanoma, 43.6 µM with SNB-75 CNS, 58.7 µM in the assay on U251 CNS and above 100 µM with UACC-257 melanoma.

Turning to `CC1CCCC(C(=O)CC2CC(=O)NC(=O)C2)C1=O` (stereo not drawn), the TGI with 786-0 renal, in the assay on BT-549 breast, with HCC-2998 colon, with HCT-116 colon, with NCI-H226 lung and with OVCAR-8 ovarian was above 100 µM each time. Besides, the TGI in the assay with SK-MEL-5 melanoma, in the assay with SNB-75 CNS, in the assay with U251 CNS and in the assay on UACC-257 melanoma was above 100 µM each time.

With `Cc1ccc(F)c(NC(=O)Nc2ccc(-c3cccc4[nH]nc(N)c34)cc2)c1`, the GI50 in the assay on 786-0 renal was 3.58 µM and 4.22 µM; with BT-549 breast, 2.64 µM and 3.39 µM; in the assay with HCC-2998 colon it was 2.52 µM and 2.79 µM; in the assay on HCT-116 colon, 3.12 µM and 3.5 µM; in the assay on NCI-H226 lung, 5.88 µM and 6.06 µM; in the assay with OVCAR-8 ovarian it was 3.25 µM and 3.08 µM. For the same molecule, the GI50 with SK-MEL-5 melanoma was 2.88 µM; in the assay on SNB-75 CNS it was 4.72 µM and 3.54 µM; with U251 CNS it was 3.49 µM and 3.16 µM; with UACC-257 melanoma, 4.39 µM and 5.34 µM. Also, the TGI in the assay on 786-0 renal was 18 µM and > 10 µM; with BT-549 breast it was 9.82 µM and > 10 µM; in the assay on HCC-2998 colon, 6.67 µM and 7.81 µM; with HCT-116 colon, 11.4 µM and > 10 µM; in the assay with NCI-H226 lung, 20.5 µM and > 10 µM; with OVCAR-8 ovarian, 18 µM and > 10 µM. For the same molecule, the TGI in the assay on SK-MEL-5 melanoma was 8.56 µM; in the assay on SNB-75 CNS, 15.3 µM and > 10 µM; in the assay on U251 CNS it was 20.6 µM and > 10 µM; in the assay with UACC-257 melanoma, 16.7 µM and > 10 µM.

With `CN1CC=C(c2cc(NC(=O)Nc3ccc(Oc4ccnc(NC(=O)C5CC5)c4)c(F)c3)cc(C(F)(F)F)c2)CC1`, the GI50 is 0.232 µM with 786-0 renal; 1.6 µM with BT-549 breast; 0.281 µM with HCC-2998 colon; 0.167 µM in the assay on HCT-116 colon; 1.35 µM in the assay with NCI-H226 lung; 0.238 µM with OVCAR-8 ovarian. In addition, the GI50 was 0.853 µM with SK-MEL-5 melanoma, 1.53 µM with SNB-75 CNS, 0.208 µM with U251 CNS and 1.34 µM in the assay on UACC-257 melanoma. The TGI with 786-0 renal was 0.908 µM; in the assay with BT-549 breast, 3.87 µM; in the assay with HCC-2998 colon, 1.97 µM; in the assay on HCT-116 colon it was 1.68 µM; with NCI-H226 lung it was 4.03 µM; in the assay on OVCAR-8 ovarian, 5.12 µM. The TGI stood at 1.59 µM in the assay with SK-MEL-5 melanoma, 2.95 µM in the assay on SNB-75 CNS, 0.824 µM with U251 CNS and 3.24 µM in the assay with UACC-257 melanoma.

In the case of `O=C(Cn1c(C(=O)c2ccc(Cl)cc2)nc(-c2ccc(Cl)cc2)c1-c1ccc(Cl)cc1)c1ccccc1`, the GI50 in the assay with 786-0 renal, with BT-549 breast, in the assay on HCC-2998 colon, in the assay with HCT-116 colon, in the assay with NCI-H226 lung and in the assay with OVCAR-8 ovarian was above 100 µM in each case. Further, the GI50 in the assay on SK-MEL-5 melanoma, with SNB-75 CNS, in the assay with U251 CNS and in the assay with UACC-257 melanoma was above 100 µM in each case. The TGI in the assay on 786-0 renal, with BT-549 breast, with HCC-2998 colon, with HCT-116 colon, in the assay with NCI-H226 lung and in the assay on OVCAR-8 ovarian was above 100 µM each time. For the same molecule, the TGI with SK-MEL-5 melanoma, with SNB-75 CNS, in the assay on U251 CNS and with UACC-257 melanoma was above 100 µM each time.

For the molecule `CC1=C/C=C/C(=O)O[C@@H]([C@H](C)[C@H](O)[C@@H](C)NC(=O)C(C)C)[C@H](C)/C=C/C(C)=C/[C@H]2C=CCC[C@@]2(C)\C=C\1`, the GI50 was 0.506 µM and 0.147 µM with 786-0 renal; 0.836 µM and 1.13 µM in the assay with BT-549 breast; 0.561 µM and 4.67 µM with HCC-2998 colon; 0.0446 µM and 0.0232 µM in the assay on HCT-116 colon; 2.48 µM and 0.582 µM with NCI-H226 lung; 3.17 µM and 0.989 µM with OVCAR-8 ovarian. Moreover, the GI50 in the assay with SK-MEL-5 melanoma was 0.0634 µM and 0.0202 µM; in the assay on U251 CNS it was 0.0759 µM and 0.0702 µM. Moreover, the TGI in the assay on 786-0 renal is 8.06 µM; in the assay with BT-549 breast, 16.3 µM; with HCC-2998 colon, 23.5 µM; in the assay with HCT-116 colon, 6.3 µM; in the assay on NCI-H226 lung, 10 µM; with OVCAR-8 ovarian, 34.2 µM. For the same molecule, the TGI in the assay on SK-MEL-5 melanoma was 0.81 µM and 0.812 µM; with SNB-75 CNS, above 42.3 µM; in the assay with U251 CNS it was 7.18 µM; with UACC-257 melanoma, 13.3 µM.

For `Oc1cc(N2CC2)c(O)cc1N1CC1`, the GI50 is 0.742 µM in the assay with 786-0 renal; 1.84 µM in the assay with BT-549 breast; 1.49 µM in the assay on HCC-2998 colon; 0.615 µM with HCT-116 colon; 1.63 µM in the assay on NCI-H226 lung; 1.25 µM with OVCAR-8 ovarian. For the same molecule, the GI50 with SK-MEL-5 melanoma is 0.874 µM; in the assay with SNB-75 CNS it was 1.14 µM; with U251 CNS it was 0.577 µM; in the assay on UACC-257 melanoma, 0.851 µM. The TGI is 4.69 µM in the assay with 786-0 renal; 5.96 µM in the assay on BT-549 breast; 2.98 µM in the assay on HCC-2998 colon; 10.8 µM in the assay on HCT-116 colon; 4.59 µM with NCI-H226 lung; 9.44 µM with OVCAR-8 ovarian. Also, the TGI in the assay with SK-MEL-5 melanoma is 2.99 µM; with SNB-75 CNS, 2.6 µM; in the assay with U251 CNS, 10.7 µM; in the assay on UACC-257 melanoma, 2.98 µM.
